Laboratory results published in ChEMBL document CHEMBL1201862, “PubChem BioAssay data set” (2004).
pIC50: −log10 of the molar value. Active and inactive are the calls of the source.

Assays:
[1] = target: T1, RNA-binding protein pos-1 (Caenorhabditis elegans, UniProt G5EF15); test: inhibitors of POS-1/mex-3 RNA binding, dose response, biochemical, fluorescence polarization (AID 1964);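 also: purified POS-1 fused to maltose binding protein made in E. coli; potency of compounds blocking POS-1 binding to fluorescent RNA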
T1 sequence (G5EF15 whole entry): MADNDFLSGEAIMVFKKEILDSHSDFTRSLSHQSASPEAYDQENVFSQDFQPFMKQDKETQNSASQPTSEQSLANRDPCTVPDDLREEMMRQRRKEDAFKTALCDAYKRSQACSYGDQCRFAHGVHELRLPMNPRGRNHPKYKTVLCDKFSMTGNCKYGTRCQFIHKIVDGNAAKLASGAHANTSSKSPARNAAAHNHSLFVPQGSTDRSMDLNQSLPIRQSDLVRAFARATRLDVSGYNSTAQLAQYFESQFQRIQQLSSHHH

[2] = target: T2, Zinc finger protein mex-5 (Caenorhabditis elegans, UniProt Q9XUB2); test: MEX-5/TCR-2 RNA interaction inhibitors, dose response, biochemical, C. elegans, fluorescence polarization (AID 1960)
T2 sequence (Q9XUB2 whole entry): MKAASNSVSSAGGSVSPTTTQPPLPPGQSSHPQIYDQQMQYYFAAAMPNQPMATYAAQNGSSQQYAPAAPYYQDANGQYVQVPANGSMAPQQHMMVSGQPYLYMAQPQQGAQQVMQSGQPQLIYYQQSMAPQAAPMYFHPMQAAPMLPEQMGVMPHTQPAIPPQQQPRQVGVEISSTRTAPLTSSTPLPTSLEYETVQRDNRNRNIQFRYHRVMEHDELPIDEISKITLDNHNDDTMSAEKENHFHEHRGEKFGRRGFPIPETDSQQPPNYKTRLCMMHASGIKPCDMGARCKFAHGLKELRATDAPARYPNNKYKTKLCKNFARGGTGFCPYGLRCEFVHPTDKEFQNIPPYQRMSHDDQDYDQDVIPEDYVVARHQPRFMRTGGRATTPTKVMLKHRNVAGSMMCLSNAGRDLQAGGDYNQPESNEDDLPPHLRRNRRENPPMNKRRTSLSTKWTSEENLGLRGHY

Ion channel NompC = Ion channel NompC (Danio rerio, UniProt Q7T1G6); test: Dose response cell-based high-throughput screening assay for agonists of the transient receptor potential channel N1 (TRPN1). [Related pubchem assays (depositor defined):AID1424, AID1448]; assay type: functional
Mucolipin-3 = Mucolipin-3 (Homo sapiens, UniProt Q8TDD5); test: Fluorescence counterscreen assay for […] agonists: dose response cell-based high-throughput screening assay to identify agonists of the transient receptor potential channel ML3 (TRPML3). [Related pubchem assays: 1424, 1448 ]; assay type: functional
Sequence of Mucolipin-3 (Q8TDD5 whole entry): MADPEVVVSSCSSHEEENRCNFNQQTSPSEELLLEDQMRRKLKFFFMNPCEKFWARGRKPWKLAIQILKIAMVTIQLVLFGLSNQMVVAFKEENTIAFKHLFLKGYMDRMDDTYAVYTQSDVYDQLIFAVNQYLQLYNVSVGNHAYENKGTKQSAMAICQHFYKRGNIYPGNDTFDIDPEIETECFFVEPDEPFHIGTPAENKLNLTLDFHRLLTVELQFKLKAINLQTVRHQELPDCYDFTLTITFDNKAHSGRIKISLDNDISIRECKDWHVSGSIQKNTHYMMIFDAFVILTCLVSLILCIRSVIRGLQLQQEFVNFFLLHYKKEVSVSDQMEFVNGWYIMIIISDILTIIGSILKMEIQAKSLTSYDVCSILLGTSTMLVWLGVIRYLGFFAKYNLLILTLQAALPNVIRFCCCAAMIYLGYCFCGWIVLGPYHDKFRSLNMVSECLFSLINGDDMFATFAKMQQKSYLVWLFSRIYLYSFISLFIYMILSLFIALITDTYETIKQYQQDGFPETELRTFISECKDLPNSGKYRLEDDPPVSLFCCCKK

[3] = target: T3, Corticotropin-releasing factor receptor 2/Corticotropin-releasing factor-binding protein (Homo sapiens, UniProt P24387+Q13324); test: activators of CRF receptor 2 with binding protein – uHTS hits, confirmation (AID 602473); assay type: functional; conditions: read-out: EC50_Mean
T3 sequence (Q13324 whole entry): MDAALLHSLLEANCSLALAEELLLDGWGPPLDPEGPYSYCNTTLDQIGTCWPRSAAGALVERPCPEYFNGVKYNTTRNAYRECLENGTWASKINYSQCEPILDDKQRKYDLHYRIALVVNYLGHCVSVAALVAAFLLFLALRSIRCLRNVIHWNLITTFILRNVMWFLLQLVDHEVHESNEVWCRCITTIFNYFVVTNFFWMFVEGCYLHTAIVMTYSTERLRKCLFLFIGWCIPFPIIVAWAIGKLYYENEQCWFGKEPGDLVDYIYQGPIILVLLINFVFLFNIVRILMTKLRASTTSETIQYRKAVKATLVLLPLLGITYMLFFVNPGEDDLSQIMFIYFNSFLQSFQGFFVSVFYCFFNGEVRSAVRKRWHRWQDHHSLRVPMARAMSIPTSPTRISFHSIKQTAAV
T3 sequence (P24387 whole entry): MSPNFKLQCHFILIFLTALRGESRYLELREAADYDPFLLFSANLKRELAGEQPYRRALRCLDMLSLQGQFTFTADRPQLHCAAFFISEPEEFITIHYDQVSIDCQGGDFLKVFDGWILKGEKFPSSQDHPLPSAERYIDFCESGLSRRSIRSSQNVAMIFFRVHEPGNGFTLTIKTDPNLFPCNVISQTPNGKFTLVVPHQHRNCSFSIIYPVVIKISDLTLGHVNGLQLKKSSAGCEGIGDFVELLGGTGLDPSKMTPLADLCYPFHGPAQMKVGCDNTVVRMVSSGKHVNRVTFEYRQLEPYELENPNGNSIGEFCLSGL

[4] = target: T4, Tyrosine-protein phosphatase non-receptor type 7 (Homo sapiens, UniProt P35236); test: SAR analysis of chemical inhibitors of HePTP using a Fluorescent assay - Set 2. [Related pubchem assays (depositor defined):AID1059, AID1077, AID1661, AID2085, AID521]; assay type: functional
T4 sequence (P35236 whole entry): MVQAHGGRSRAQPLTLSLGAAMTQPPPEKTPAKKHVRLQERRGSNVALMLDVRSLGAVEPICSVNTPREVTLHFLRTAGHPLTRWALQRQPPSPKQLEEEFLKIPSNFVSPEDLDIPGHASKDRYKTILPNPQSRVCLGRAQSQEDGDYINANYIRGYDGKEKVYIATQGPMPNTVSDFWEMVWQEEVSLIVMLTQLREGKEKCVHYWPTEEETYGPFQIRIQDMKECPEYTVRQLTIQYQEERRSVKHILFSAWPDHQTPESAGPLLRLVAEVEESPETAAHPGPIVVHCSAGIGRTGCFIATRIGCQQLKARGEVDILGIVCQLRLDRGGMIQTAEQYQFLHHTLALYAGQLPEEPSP

[5] = target: Dual specificity protein phosphatase 3 (Homo sapiens, UniProt P51452); test: SAR VHR1 Fluorescent Assay for In Vitro dose response studies Set 2. [Related pubchem assays (depositor defined):AID1654, AID1661, AID1878]; assay type: functional
Sequence of Dual specificity protein phosphatase 3 (P51452 whole entry): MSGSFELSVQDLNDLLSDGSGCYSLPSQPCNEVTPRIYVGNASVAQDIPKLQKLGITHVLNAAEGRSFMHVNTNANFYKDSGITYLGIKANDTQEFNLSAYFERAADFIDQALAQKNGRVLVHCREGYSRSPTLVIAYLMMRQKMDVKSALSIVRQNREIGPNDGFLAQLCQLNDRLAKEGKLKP

[6] = target: T5, Mannose-6-phosphate isomerase (Homo sapiens, UniProt P34949); test: PMI enzyme inhibitors, confirmation, biochemical, fluorescence intensity (AID 1535)
T5 sequence (P34949 whole entry): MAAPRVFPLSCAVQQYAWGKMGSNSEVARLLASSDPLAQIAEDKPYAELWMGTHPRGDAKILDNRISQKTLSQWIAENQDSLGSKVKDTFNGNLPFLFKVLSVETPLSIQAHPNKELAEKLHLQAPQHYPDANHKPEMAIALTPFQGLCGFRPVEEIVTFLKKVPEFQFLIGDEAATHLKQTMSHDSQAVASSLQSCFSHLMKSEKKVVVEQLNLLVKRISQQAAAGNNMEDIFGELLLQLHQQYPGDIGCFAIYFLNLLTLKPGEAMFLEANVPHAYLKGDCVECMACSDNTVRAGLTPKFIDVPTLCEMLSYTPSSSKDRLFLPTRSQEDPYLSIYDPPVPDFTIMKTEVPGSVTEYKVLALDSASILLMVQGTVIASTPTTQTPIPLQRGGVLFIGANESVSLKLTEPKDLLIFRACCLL

Phosphomannomutase 2 = Phosphomannomutase 2 (Homo sapiens, UniProt O15305); test: Counter screen SAR assay for PMM2 inhibitors via a fluorescence intensity assay. [Related pubchem assays (depositor defined):AID1545, AID1574]
Sequence of Phosphomannomutase 2 (O15305 whole entry): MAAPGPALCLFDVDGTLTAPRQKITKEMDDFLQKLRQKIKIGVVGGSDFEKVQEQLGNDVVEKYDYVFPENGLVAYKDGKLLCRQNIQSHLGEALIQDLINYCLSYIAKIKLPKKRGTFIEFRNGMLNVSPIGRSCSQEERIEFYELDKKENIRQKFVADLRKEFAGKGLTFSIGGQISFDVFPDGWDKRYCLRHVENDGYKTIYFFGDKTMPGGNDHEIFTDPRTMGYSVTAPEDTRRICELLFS

[7] = target: Phosphoethanolamine/phosphocholine phosphatase (Homo sapiens, UniProt Q8TCT1); test: SAR assay for compounds that inhibit PHOSPHO1. [Related pubchem assays (depositor defined):AID1545, AID1565, AID1574]
Sequence of Phosphoethanolamine/phosphocholine phosphatase (Q8TCT1 whole entry): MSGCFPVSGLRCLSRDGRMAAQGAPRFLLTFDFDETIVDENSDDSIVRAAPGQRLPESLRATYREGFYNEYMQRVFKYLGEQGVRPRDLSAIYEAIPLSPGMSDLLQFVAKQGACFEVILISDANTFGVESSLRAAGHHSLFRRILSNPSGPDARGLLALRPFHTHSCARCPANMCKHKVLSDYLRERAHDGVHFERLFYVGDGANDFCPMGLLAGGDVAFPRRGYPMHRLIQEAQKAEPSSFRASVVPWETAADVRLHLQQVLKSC

Beta-galactosidase [8] = target: T6, Beta-galactosidase (Escherichia coli, UniProt Q8VNN2); test: PubChem AID 485352; assay type: functional
T6 sequence (Q8VNN2 whole entry): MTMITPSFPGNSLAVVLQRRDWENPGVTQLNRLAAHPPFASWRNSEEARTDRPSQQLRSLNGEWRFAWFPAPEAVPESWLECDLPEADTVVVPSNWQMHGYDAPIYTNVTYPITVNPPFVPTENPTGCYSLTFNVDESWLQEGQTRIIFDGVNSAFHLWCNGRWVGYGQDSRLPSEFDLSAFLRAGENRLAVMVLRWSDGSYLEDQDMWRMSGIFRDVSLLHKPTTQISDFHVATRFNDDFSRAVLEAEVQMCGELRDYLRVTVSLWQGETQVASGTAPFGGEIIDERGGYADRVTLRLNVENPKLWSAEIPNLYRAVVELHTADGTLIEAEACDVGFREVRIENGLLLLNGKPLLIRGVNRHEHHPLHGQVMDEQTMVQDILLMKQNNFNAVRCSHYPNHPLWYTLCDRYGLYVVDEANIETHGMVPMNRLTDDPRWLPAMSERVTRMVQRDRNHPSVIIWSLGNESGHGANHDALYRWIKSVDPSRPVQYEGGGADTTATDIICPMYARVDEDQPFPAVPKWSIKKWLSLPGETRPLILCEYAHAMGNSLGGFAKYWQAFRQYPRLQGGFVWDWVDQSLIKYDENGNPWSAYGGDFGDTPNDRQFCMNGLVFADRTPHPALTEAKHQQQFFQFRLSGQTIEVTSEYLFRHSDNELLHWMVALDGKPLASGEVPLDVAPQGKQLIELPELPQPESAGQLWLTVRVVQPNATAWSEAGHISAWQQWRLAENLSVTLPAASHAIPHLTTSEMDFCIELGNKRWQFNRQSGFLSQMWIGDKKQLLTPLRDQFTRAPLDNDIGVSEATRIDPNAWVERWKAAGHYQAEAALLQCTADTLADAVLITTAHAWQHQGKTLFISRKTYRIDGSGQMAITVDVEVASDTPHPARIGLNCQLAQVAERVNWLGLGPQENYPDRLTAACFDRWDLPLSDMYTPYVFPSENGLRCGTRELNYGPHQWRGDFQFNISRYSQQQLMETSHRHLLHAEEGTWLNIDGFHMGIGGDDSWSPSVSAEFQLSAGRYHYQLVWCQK

[9] = inhibitors of intracellular T. cruzi replication, confirmation, NIH3T3 host cells, beta-gal luminescence (AID 2044); assay type: functional, cell-based;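 also: intracellular parasites grown in NIH/3T3 mouse fibroblasts as host cells; luminescent beta-galactosidase reporter signal from transgenic T. cruzi replicating inside host cells; inhibitors lower the luminescence signal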
[10] = target: T7, Type-1 angiotensin II receptor (Homo sapiens, UniProt P30556); test: AT1 receptor antagonists, dose response, selectivity assay for APJ receptor antagonist project, cell-based, uHTS hits (AID 463214); assay type: functional;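 also: antagonist potency against angiotensin II stimulated AT1 response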
T7 sequence (P30556 whole entry): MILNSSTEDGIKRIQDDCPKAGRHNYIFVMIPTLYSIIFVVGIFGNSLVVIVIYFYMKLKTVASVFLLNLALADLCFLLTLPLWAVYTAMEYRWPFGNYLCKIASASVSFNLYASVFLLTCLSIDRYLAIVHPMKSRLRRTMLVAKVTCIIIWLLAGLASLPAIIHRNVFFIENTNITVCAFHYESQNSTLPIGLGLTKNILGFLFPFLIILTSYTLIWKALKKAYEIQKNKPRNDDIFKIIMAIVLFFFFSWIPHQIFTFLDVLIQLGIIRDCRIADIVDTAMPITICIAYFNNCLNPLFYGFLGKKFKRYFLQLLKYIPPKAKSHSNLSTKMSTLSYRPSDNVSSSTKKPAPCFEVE

[11] = target: T8, Kappa-type opioid receptor (Homo sapiens, UniProt P41145); assay type: functional
T8 sequence (P41145 whole entry): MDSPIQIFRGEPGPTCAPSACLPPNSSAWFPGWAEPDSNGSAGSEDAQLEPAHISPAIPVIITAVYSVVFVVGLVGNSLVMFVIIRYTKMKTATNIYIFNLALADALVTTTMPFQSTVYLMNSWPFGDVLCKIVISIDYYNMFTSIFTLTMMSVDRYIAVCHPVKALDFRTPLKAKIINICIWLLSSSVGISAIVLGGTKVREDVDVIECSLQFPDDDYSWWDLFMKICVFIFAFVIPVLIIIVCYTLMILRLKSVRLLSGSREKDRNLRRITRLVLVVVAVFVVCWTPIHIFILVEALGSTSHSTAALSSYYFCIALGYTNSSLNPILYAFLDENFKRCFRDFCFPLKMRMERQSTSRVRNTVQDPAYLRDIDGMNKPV

[12] = cytotoxicity toward NIH3T3 fibroblasts, dose response, counter-screen, cell-based, ATP luminescence, mouse fibroblasts (AID 2010); assay type: functional;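 also: cells exposed to compound for about 90 hours before reading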
Beta-galactosidase [13] = target: T6, Beta-galactosidase; assay type: functional
[14] = target: T8, Kappa-type opioid receptor; assay type: functional; remark: listed apart in the source
Hexokinase HKDC1 = target: T9, Hexokinase HKDC1 (Homo sapiens, UniProt Q2TB90); test: HKDC1 hexokinase activators, dose response, biochemical, W721R variant (AID 504730); assay type: functional
T9 sequence (Q2TB90 whole entry): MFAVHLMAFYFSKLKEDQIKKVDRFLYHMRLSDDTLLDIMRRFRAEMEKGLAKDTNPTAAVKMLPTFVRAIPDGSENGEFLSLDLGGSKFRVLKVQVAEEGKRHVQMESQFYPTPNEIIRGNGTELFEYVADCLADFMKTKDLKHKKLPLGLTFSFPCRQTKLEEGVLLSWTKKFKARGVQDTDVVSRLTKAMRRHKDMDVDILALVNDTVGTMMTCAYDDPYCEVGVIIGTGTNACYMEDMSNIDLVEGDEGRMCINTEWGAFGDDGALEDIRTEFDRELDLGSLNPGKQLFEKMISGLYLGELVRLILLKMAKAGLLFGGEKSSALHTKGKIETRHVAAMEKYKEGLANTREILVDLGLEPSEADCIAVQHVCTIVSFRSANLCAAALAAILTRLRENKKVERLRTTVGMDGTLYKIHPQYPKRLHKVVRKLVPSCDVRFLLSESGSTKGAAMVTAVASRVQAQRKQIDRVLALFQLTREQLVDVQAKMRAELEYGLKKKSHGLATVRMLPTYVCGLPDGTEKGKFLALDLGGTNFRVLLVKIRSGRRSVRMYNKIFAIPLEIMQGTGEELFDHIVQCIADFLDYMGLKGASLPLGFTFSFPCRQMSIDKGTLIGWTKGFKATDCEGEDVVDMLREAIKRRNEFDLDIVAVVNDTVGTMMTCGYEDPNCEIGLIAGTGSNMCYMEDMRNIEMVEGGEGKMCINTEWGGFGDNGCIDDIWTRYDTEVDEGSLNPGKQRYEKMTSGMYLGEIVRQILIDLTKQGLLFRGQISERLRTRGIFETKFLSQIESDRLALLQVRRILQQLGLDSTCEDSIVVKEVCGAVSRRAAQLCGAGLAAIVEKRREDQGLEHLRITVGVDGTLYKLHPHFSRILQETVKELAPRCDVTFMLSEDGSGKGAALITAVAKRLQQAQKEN

Hexokinase-1 = Hexokinase-1 (Homo sapiens, UniProt P19367); test: hexokinase 1 activators, dose response, selectivity assay for HKDC1 activator project, biochemical (AID 504762); assay type: functional
Sequence of Hexokinase-1 (P19367 whole entry): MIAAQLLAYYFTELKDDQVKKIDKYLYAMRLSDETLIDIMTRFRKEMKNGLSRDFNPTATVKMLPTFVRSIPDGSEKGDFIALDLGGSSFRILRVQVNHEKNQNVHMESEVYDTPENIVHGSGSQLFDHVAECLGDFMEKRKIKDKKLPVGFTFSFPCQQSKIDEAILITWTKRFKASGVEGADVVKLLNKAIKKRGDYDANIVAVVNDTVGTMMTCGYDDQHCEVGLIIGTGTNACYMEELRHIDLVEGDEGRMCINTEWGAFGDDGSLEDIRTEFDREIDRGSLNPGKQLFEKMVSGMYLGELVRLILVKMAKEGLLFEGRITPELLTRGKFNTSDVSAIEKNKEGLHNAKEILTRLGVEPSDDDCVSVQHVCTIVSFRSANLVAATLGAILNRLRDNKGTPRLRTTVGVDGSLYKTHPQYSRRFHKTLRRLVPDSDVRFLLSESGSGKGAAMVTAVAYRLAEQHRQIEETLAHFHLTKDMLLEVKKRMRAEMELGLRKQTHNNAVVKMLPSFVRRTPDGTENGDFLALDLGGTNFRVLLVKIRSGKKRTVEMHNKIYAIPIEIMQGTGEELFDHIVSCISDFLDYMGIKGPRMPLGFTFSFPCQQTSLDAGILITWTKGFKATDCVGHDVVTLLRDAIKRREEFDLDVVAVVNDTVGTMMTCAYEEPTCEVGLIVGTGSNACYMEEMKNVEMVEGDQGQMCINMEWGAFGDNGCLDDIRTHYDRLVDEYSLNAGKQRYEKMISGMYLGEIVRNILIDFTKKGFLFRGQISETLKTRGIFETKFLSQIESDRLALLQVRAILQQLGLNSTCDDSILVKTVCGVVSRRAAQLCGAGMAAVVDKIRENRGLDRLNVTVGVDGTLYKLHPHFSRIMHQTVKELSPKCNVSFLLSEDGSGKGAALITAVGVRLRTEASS

[15] = target: 26S proteasome non-ATPase regulatory subunit 14 (Homo sapiens, UniProt O00487); test: inhibition of proteasome subunit RPN11 – biochemical, fluorescence polarization, uHTS hits, confirmation (AID 602368); assay type: functional
Sequence of 26S proteasome non-ATPase regulatory subunit 14 (O00487 whole entry): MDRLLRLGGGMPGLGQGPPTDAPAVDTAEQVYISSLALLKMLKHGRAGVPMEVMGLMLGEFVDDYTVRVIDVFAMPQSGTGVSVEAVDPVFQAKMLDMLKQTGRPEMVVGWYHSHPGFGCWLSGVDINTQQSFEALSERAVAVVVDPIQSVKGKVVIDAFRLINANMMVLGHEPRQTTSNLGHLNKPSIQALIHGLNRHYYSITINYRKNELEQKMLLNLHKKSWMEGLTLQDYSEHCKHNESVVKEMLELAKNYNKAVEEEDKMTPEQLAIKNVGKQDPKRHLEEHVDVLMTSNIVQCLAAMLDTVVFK

[16] = target: 72 kDa type IV collagenase (Homo sapiens, UniProt P08253); test: Dose Response validation of uHTS RPN11 inhibitor hits using a MMP-2 Fluorescence assay.; assay type: functional
Sequence of 72 kDa type IV collagenase (P08253 whole entry): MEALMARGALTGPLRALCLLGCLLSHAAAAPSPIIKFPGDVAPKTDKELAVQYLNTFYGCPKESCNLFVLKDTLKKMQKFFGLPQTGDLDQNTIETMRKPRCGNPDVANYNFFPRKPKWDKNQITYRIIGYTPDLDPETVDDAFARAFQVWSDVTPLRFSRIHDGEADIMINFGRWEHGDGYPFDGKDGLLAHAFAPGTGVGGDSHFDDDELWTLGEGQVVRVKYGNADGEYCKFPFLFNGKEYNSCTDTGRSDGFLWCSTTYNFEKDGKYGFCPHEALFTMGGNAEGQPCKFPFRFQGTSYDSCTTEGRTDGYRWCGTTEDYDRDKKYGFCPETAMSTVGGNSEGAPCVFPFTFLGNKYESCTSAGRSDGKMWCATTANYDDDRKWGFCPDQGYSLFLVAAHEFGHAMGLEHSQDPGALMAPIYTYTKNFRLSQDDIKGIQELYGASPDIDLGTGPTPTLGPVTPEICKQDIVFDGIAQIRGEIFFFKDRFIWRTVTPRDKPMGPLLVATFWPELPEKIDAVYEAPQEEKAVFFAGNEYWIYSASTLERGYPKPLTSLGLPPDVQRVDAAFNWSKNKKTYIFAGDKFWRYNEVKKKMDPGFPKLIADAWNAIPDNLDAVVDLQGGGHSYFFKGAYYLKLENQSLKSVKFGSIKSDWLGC

Prothrombin = Prothrombin (Bos taurus, UniProt P00735); test: thrombin inhibition, dose response, biochemical, fluorescence polarization, uHTS hits (AID 602369); assay type: functional
Protein Wnt-3a = Protein Wnt-3a (Mus musculus, UniProt P27467); test: Wnt3a-driven reporter signaling inhibition, dose response, selectivity assay for Gli-SUFU antagonist project, Wnt-LIGHT cells, luminescence (AID 651570); assay type: functional; conditions: read-out: IC50_Mean;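 also: Wnt-LIGHT reporter cells stimulated with conditioned medium from Wnt3a-producing cells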
Sequence of Protein Wnt-3a (P27467 whole entry): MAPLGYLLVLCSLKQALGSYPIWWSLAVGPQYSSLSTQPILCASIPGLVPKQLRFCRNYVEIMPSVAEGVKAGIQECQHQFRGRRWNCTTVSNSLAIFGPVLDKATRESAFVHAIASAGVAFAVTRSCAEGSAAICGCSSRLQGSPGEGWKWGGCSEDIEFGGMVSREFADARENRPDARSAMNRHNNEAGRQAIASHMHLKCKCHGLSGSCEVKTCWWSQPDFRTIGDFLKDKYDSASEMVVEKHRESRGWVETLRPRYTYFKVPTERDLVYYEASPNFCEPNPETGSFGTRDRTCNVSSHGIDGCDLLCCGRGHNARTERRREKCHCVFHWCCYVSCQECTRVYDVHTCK

Structure (SMILES): Nc1c(C(=O)c2ccc(Cl)cc2)sc2nsc(SCCN3CCOCC3)c12
- EC50 [1]: > 300 µM (not active)
- EC50 [2]: 74.2 µM (inconclusive)
- EC50 (Ion channel NompC): > 9.97 µM (inactive)
- EC50 (Mucolipin-3): > 9.97 µM (not active)
- EC50 [3]: 9.14 µM (active)

Structure (SMILES): Oc1ccc(C(=S)NCc2ccc(F)c(C(F)(F)F)c2)cc1
- IC50 [4]: 30.9 µM (active)
- IC50 [5]: 40.9 µM (active)

Structure (SMILES): O=c1c2ccc([N+](=O)[O-])cc2sn1-c1cc(C(F)(F)F)ccc1Cl
- IC50 [6]: > 50 µM (inactive)
- IC50 (Phosphomannomutase 2): > 100 µM (inactive)
- IC50 [7]: 0.252 µM (active)

Structure (SMILES): CC(=O)/C(=N\Nc1ccc(Cl)cc1Cl)Sc1cccc2cccnc12
- EC50 (Beta-galactosidase [8]): > 40 µM (inactive)
- EC50 [9]: 0.289 µM (active)
- IC50 [10]: 10.6 µM (active)
- IC50 [11]: 9.32 µM (active)
- EC50 [12]: 26.7 µM (active)
- EC50 (Beta-galactosidase [13]): > 31.5 µM (inactive)
- pIC50 [14]: < 4.49
- EC50 (Hexokinase HKDC1): 15.5 µM (active)
- EC50 (Hexokinase-1): > 80 µM (inactive)
- IC50 [15]: 32.2 µM (active)
- IC50 [16]: > 100 µM (inactive)
- IC50 (Prothrombin): > 100 µM (inactive)
- IC50 (Protein Wnt-3a): 11.4 µM (active)
